Laboratory results taken from patent US8609173B2, “Compositions comprising sweetness enhancers and methods of making them” (Senomyx Inc., priority 2008, dated 2013).

Test system: Panelists
Experiment: Paired comparison taste test, flavored water
Type: in vivo, Human
Procedure: Two sweetened water solutions were prepared and compared: Flavored Water with 9% Sucrose vs. Flavored Water with 6% Sucrose+2.3 ppm (6.49 μM) of 5-(neopentyloxy)-1H-benzo[c][1,2,6]thiadiazin-4-amino-2,2-dioxide.
Mixing procedures: Dissolve acid into the water using a Lightnin® blender, mix for 5 minutes. Add sugar and continue to mix until dissolved. Add flavors last. Dissolve Compound A into a 0.50% propylene glycol mixture, add last and mix for another 5 minutes. Procedure:
(§1) Panelists evaluated two sweetened water solutions in a paired comparison taste test procedure and were instructed to select the sweeter of the two samples. They perform a total of three paired comparison tests each containing the following samples: Flavored Water with 9% Sucrose vs. Flavored Water with 6% Sucrose+2.3 ppm (6.49 μM) 5-(neopentyloxy)-1H-benzo[c][1,2,6]thiadiazin-4-amino-2,2-dioxide.
Two sweetened water solutions were prepared and compared: Flavored Water with 9% Sucrose vs. Flavored Water with 6% Sucrose+2.44 ppm (6.49 μM) of 3-(4-amino-2,2-dioxide-1H-benzo[c][1,2,6]thiadiazin-5-yloxy)-2′,2′-dimethyl-N-propylpropanamide.
as §1, with “Sucrose+2.44” for “Sucrose+2.3”, “3-(4-amino-2,2-dioxide-1H-benzo[c][1,2,6]thiadiazin-5-yloxy)-2′,2′-dimethyl-N-propylpropanamide.” for “5-(neopentyloxy)-1H-benzo[c][1,2,6]thiadiazin-4-amino-2,2-dioxide.”

CCCNC(=O)C(C)(C)COc1cccc2c1C(N)=NS(=O)(=O)N2 [3-(4-amino-2,2-dioxide-1H-benzo[c][1,2,6]thiadiazin-5-yloxy)-2′,2′-dimethyl-N-propylpropanamide]
Sample selected as sweeter by panelists, Total (Flavored Water with 6% Sucrose + 2.44 ppm (6.49 μM) compound chosen, vs 9% Sucrose, n = 42): 20
Sweetness comparison (conclusion) (Flavored Water with 6% Sucrose + 2.44 ppm (6.49 μM) compound vs 9% Sucrose, p>0.10): not significantly different in sweetness
